Holding throughout (type): biochemical
For one assay, the target named is Rsk1 (Homo sapiens (Human), UniProt Q15418). The experiment in a line: Inhibitory effects on Rsk1 kinase activity (QSS Assist FP assay kit). The note with it: Rsk1, ATP 30 μM; read-out: Rsk inhibitory activity IC50. The method, then:
Inhibitory activity of the compound according to the present invention on Rsk1 kinase activity in vitro was assayed using the QSS Assist™ FP assay kit (Carna Biosciences, Inc.).
In the inhibition assay of inhibitory activity of the compound, the test compound was diluted by serial dilution with dimethyl sulfoxide (DMSO). Subsequently, an Rsk1 protein, a substrate peptide (final concentration: 100 nM), magnesium chloride (final concentration: 10 mM), ATP (final concentration: 30 μM), and the solution of the test compound in DMSO (DMSO final concentration: 5%) were added to the kinase reaction buffer (20 mM HEPES (pH 7.4), 2 mM dithiothreitol, 0.01% Tween-20), and the mixture was incubated at 25° C. for 40 minutes to perform the kinase reaction. The IMAP Progressive Binding Reagent diluted to 400-fold with the IMAP Progressive Binding Buffer A (Molecular Devices, LLC) was added to terminate the kinase reaction.

The target of another assay is S6K1 (Homo sapiens (Human), UniProt P23443). The experiment in a line: Inhibitory effects on S6K1 kinase activity (QSS Assist FP assay kit). Particulars: S6K1, ATP 25 μM; read-out: S6K inhibitory activity IC50. How it is done:
Inhibitory activity of the compound according to the present invention on S6K1 kinase activity in vitro was assayed using the QSS Assist™ FP assay kit (Carna Biosciences, Inc.).
In the inhibition assay for inhibitory activity of the compound, the test compound was diluted by serial dilution with dimethyl sulfoxide (DMSO). Subsequently, an S6K protein, a substrate peptide (final concentration: 100 nM), magnesium chloride (final concentration: 5 mM), ATP (final concentration: 25 μM), and the solution of the test compound in DMSO (final DMSO concentration: 5%) were added to the kinase reaction buffer (20 mM HEPES (pH 7.4), 2 mM dithiothreitol, 0.01% Tween-20), and the mixture was incubated at 25° C. for 30 minutes to perform the kinase reaction. The IMAP Progressive Binding Reagent diluted to 400-fold with the IMAP Progressive Binding Buffer A (Molecular Devices, LLC) was added thereto to terminate the kinase reaction. The reaction product was allowed to stand at room temperature in the dark for 120 minutes and assayed with the use of PHERAstar (BMG LABTECH; excitation wavelength: 485 nm; detection wavelength: 520 nm). The level of phosphorylation reaction was determined based on the degree of fluorescence polarization, and the concentration of the compound at which phosphorylation could be inhibited by 50% was defined as the IC50 level (nM) and shown in Table 4.

A further assay deals with human Akt1 (Homo sapiens (Human), UniProt P31749). The experiment in a line: Inhibitory effects on Akt1 kinase activity (TR-FRET, biotinylated Crosstide). Particulars: Akt1, ATP 150 μM, pre-incubation 120 minutes at 25° C.; read-out: AKT inhibitory activity IC50. The method, then: Akt1 was prepared and assays of inhibitory activity of the compound according to the present invention against Akt1 kinase activity in vitro were conducted according to the method described in Biochem. J., vol. 385, pp. 399-408, 2005 and Cancer Res., vol. 68, pp. 2366-2374, 2008. In the preparation of Akt1 protein, human Akt1 tagged with the middle T antigen was expressed in an insect cell Sf9, Akt1 was prepared through affinity purification and activation by PDK1, and the resultant was stored at −80° C. until the inhibition assays of the compounds. In the inhibition assay of the compounds, Akt1 and the compound according to the present invention were subjected to pre-incubation at 25° C. for 120 minutes in a reaction buffer (15 mM Tris-HCl, pH 7.5, 0.01% Tween-20, 2 mM DTT). Subsequently, biotinylated Crosstide (biotin-[…], Millipore), MgCl2, and ATP were added as substrates at the final concentration of 500 nM, 10 mM, and 150 μM, respectively, and the reaction was allowed to proceed at 25° C. for 60 minutes. EDTA was added to the final concentration of 40 mM to terminate the reaction, a detection liquid containing the Eu-anti-phospho-Crosstide antibody (PerkinElmer) and SureLight APC-SA (PerkinElmer) at the final concentration of 0.5 nM and 62.5 nM, respectively was added, and the reaction was allowed to proceed at room temperature for 2 hours. In the end, the fluorescence levels irradiated with an excitation light of 337 nm were assayed at two different wavelength levels (i.e., 620 nm and 665 nm) using PI-HERAstar FS (BMG LABTECH) or PHERAstar (BMG LABTECH). The level of the phosphorylation reaction was determined on the basis of the ratio of fluorescence levels at two wavelength levels, and the concentration of the compound at which phosphorylation could be inhibited by 50% was defined as the IC50 level (nM) and shown in Table 2.
Chain of human Akt1 (P31749 whole entry): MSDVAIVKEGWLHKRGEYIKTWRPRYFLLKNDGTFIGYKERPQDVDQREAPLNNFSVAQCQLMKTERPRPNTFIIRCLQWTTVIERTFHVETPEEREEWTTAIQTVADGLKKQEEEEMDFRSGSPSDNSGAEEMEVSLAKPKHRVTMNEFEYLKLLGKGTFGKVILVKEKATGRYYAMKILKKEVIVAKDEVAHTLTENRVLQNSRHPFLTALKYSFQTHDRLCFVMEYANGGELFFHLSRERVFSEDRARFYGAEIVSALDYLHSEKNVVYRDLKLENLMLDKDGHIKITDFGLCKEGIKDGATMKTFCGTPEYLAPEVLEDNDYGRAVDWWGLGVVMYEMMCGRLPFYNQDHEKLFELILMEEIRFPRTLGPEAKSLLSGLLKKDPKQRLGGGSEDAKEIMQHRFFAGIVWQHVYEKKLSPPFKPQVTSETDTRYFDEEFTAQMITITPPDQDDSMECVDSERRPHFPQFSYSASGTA
As reference compounds, conventional Comparative Example A (WO 2010/056563 (Example 31)) and Comparative Example B having inhibitory activity against Akt were used.
A general note: TR-FRET usually uses a lanthanide donor and a delayed reading to cut background.

Chain of S6K1 (P23443 whole entry): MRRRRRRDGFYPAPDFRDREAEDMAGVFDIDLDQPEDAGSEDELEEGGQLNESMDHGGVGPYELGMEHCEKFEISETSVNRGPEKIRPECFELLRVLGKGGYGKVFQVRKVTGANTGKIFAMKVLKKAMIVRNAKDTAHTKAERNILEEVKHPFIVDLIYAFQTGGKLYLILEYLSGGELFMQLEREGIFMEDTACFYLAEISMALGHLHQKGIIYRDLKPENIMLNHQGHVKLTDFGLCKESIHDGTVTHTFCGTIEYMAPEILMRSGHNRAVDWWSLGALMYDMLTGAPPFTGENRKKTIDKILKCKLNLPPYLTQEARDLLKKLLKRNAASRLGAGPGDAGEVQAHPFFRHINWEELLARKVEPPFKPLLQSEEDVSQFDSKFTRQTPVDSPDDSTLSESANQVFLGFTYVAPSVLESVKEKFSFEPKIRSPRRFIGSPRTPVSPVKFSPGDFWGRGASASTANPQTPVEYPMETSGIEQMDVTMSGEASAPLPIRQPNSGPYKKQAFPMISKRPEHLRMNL
Chain of Rsk1 (Q15418 whole entry): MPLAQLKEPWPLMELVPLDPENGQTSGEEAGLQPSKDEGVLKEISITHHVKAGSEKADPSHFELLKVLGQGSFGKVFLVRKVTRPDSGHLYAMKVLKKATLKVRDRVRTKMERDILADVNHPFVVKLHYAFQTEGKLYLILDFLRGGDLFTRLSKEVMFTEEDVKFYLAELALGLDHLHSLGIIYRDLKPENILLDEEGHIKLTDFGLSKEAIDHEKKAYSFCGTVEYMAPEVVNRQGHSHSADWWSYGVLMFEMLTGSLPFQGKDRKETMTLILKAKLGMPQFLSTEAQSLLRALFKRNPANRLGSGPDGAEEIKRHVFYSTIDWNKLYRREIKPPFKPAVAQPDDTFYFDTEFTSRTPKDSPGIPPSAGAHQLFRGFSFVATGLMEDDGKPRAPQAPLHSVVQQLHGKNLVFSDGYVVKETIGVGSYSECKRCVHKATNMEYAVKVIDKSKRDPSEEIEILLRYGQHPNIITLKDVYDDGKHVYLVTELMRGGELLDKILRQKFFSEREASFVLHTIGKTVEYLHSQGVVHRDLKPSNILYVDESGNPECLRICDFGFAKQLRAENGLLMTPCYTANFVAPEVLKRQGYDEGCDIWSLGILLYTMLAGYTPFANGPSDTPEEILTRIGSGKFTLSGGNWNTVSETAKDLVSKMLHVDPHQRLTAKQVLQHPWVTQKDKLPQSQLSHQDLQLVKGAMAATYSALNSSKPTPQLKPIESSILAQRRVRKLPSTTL

For the compound `CC(C)NCCNc1ccc(-c2noc(C(F)(F)F)n2)nc1C1CCN(c2ncnc3c2C(C)(C)C(=O)N3)CC1` [Compound 42, 4-(4-(3-((2-(Isopropylamino)ethyl)amino)-6-(5-(trifluoromethyl)-1,2,4-oxadiazol-3-yl)pyridin-2-yl)piperidin-1-yl)-5,5-dimethyl-5H-pyrrolo[2,3-d]pyrimidin-6(7H)-one], the IC50 – broadly, the concentration that gives 50% inhibition – at Rsk1 turned out to be 1.2 nM; on S6K1 it was 0.5 nM; on human Akt1, 4.8 nM.
In the same order, the values of `CC1C(=O)Nc2ncnc(N3CCC(c4nc(-c5cncc(F)c5)ccc4NCCN4CCCC4)CC3)c21` (stereo not shown) [Compound 19, 4-(4-(5′-Fluoro-5-((2-(pyrrolidin-1-yl)ethyl)amino)-[2,3′-bipyridin]-6-yl)piperidin-1-yl)-5-methyl-5H-pyrrolo[2,3-d]pyrimidin-6(7H)-one] are 0.9 nM, 0.5 nM and 0.4 nM.
In the same order, the values of `CC(C)(C)NCCNc1ccc(-c2nnc(C3CC3)s2)nc1C1CCN(c2ncnc3c2C(C)(C)C(=O)N3)CC1` [Compound 40, 4-(4-(3-((2-(Tert-butylamino)ethyl)amino)-6-(5-cyclopropyl-1,3,4-thiadiazol-2-yl)pyridin-2-yl)piperidin-1-yl)-5,5-dimethyl-5H-pyrrolo[2,3-d]pyrimidin-6(7H)-one] are 0.6 nM, 0.3 nM and 3.6 nM.
In the same order, the values of `CN(CCNc1ccc(-c2nnc(C(F)(F)F)o2)nc1C1CCN(c2ncnc3c2C(C)(C)C(=O)N3)CC1)C(C)(C)C` [Compound 34, 4-(4-(3-((2-(Tert-butyl(methyl)amino)ethyl)amino)-6-(5-(trifluoromethyl)-1,3,4-oxadiazol-2-yl)pyridin-2-yl)piperidin-1-yl)-5,5-dimethyl-5H-pyrrolo[2,3-d]pyrimidin-6(7H)-one] are 0.9 nM, 0.4 nM and 1 nM.
For the compound `COc1cc(-c2ccc(NCCN3CCCC3)c(C3CCN(c4ncnc5c4C(C)C(=O)N5)CC3)n2)c(F)cn1` (stereo not shown) [Compound 16, 4-(4-(5′-Fluoro-2′-methoxy-5-((2-(pyrrolidin-1-yl)ethyl)amino)-[2,4′-bipyridin]-6-yl)piperidin-1-yl)-5-methyl-5H-pyrrolo[2,3-d]pyrimidin-6(7H)-one], the IC50 turned out to be 0.8 nM on Rsk1, 0.7 nM on S6K1 and 1.9 nM on human Akt1.
In the same order, the values of `CC(C)(C)NCCNc1ccc(-c2nc(C(F)(F)F)no2)nc1C1CCN(c2ncnc3c2C(C)(C)C(=O)N3)CC1` [Compound 43, 4-(4-(3-((2-(Tert-butylamino)ethyl)amino)-6-(3-(trifluoromethyl)-1,2,4-oxadiazol-5-yl)pyridin-2-yl)piperidin-1-yl)-5,5-dimethyl-5H-pyrrolo[2,3-d]pyrimidin-6(7H)-one] are 0.4 nM, 0.4 nM and 1 nM.
As to `COc1cncc(-c2ccc(NCCN(C)C)c(C3CCN(c4ncnc5c4C(C)C(=O)N5)CC3)n2)c1` (stereo not shown) [Compound 21, 4-(4-(5-((2-(Dimethylamino)ethyl)amino)-5′-methoxy-[2,3′-bipyridin]-6-yl)piperidin-1-yl)-5-methyl-5H-pyrrolo[2,3-d]pyrimidin-6(7H)-one], the IC50 at Rsk1 worked out at 1.3 nM; on S6K1, 0.7 nM; on human Akt1, 4 nM.
Take `CC(C)NCCNc1ccc(-c2nnc(C(F)F)s2)nc1C1CCN(c2ncnc3c2C(C)(C)C(=O)N3)CC1` [Compound 39, 4-(4-(6-(5-(Difluoromethyl)-1,3,4-thiadiazol-2-yl)-3-((2-(isopropylamino)ethyl)amino)pyridin-2-yl)piperidin-1-yl)-5,5-dimethyl-5H-pyrrolo[2,3-d]pyrimidin-6(7H)-one]: the IC50 on Rsk1 was determined as 0.6 nM; at S6K1 it was 0.3 nM; at human Akt1 it was 4.1 nM.
The matching figures for `CC(C)NCCNc1ccc(-c2nnc(C(F)F)o2)nc1C1CCN(c2ncnc3c2C(C)(C)C(=O)N3)CC1` [Compound 31, 4-(4-(6-(5-(Difluoromethyl)-1,3,4-oxadiazol-2-yl)-3-((2-(isopropylamino)ethyl)amino)pyridin-2-yl)piperidin-1-yl)-5,5-dimethyl-5H-pyrrolo[2,3-d]pyrimidin-6(7H)-one]: 1.8 nM, 0.6 nM and 7.6 nM.
On to `CC1C(=O)Nc2ncnc(N3CCC(c4nc(-c5ncco5)ccc4NCCN4CCCC4)CC3)c21` (stereo not shown) [Compound 25, 5-Methyl-4-(4-(6-(oxazol-2-yl)-3-((2-(pyrrolidin-1-yl)ethyl)amino)pyridin-2-yl)piperidin-1-yl)-5H-pyrrolo[2,3-d]pyrimidin-6(7H)-one], for which the IC50 at human Akt1 came out at 2.7 nM.
With `COc1cncc(-c2ccc(NCCN3CCCC3)c(C3CCN(c4ncnc5c4C(C)(C)C(=O)N5)CC3)n2)c1` [Compound 7, 4-(4-(5′-Methoxy-5-((2-(pyrrolidin-1-yl)ethyl)amino)-[2,3′-bipyridin]-6-yl)piperidin-1-yl)-5,5-dimethyl-5H-pyrrolo[2,3-d]pyrimidin-6(7H)-one], the IC50 worked out at 1.7 nM at Rsk1 and 0.3 nM at S6K1.
As to `Cc1ncccc1-c1ccc(NCCN2CCCC2)c(C2CCN(c3ncnc4c3C(C)C(=O)N4)CC2)n1` (stereo not shown) [Compound 22, 5-Methyl-4-(4-(2′-methyl-5-((2-(pyrrolidin-1-yl)ethyl)amino)-[2,3′-bipyridin]-6-yl)piperidin-1-yl)-5H-pyrrolo[2,3-d]pyrimidin-6(7H)-one], on human Akt1, the IC50 worked out at 1.8 nM.
Regarding `CN(C)CCNc1ccc(-c2nnc(C(F)F)s2)nc1C1CCN(c2ncnc3c2C(C)(C)C(=O)N3)CC1` [Compound 38, 4-(4-(6-(5-(Difluoromethyl)-1,3,4-thiadiazol-2-yl)-3-((2-(dimethylamino)ethyl)amino)pyridin-2-yl)piperidin-1-yl)-5,5-dimethyl-5H-pyrrolo[2,3-d]pyrimidin-6(7H)-one], the half-maximal inhibitory concentration (IC50) at Rsk1 came out at 0.9 nM; on S6K1, 0.3 nM.
As to `CC1(C)C(=O)Nc2ncnc(N3CCC(c4nc(-c5ccc(F)nc5)ccc4NCCN4CCCC4)CC3)c21` [Compound 2, 4-(4-(6′-Fluoro-5-((2-(pyrrolidin-1-yl)ethyl)amino)-[2,3′-bipyridin]-6-yl)piperidin-1-yl)-5,5-dimethyl-5H-pyrrolo[2,3-d]pyrimidin-6(7H)-one], the IC50 is 1.5 nM on Rsk1 and 0.3 nM on S6K1.
Take `CCNCCNc1ccc(-c2cncc(F)c2)nc1C1CCN(c2ncnc3c2C(C)(C)C(=O)N3)CC1` [Compound 12, 4-(4-(5-((2-(Ethylamino)ethyl)amino)-5′-fluoro[2,3′-bipyridin]-6-yl)piperidin-1-yl)-5,5-dimethyl-5H-pyrrolo[2,3-d]pyrimidin-6(7H)-one]: the IC50 came to 1.8 nM at Rsk1 and 0.3 nM on S6K1.

The values above are taken from patent publication US10538528B2, “5H-pyrrolo[2,3-D]pyrimidin-6(7H)-one derivative” (Taiho Pharmaceutical Co., Ltd., priority 2016, dated 2020).
